Reference: US4087461A, “Anti-androgenic steroids” (The Johns Hopkins University, priority 1977, dated 1978)
pKi: −log10 of the molar value. “Also recorded” adds a separate entry of the source.

Assays:
[1] = target: T1, Δ^5 -3-ketosteroid isomerase (EC 5.3.3.1) (Comamonas testosteroni, UniProt P00947); assay: irreversible inactivation of crystalline purified bacterial Δ^5-3-ketosteroid isomerase by acetylenic steroids (Kitz and Wilson kinetic analysis); type: biochemical, Pseudomonas testosteroni
Procedure: The inactivation is progressive with time, and half-lives in the range of 150-1320 sec are observed at concentrations of 20-200 μM of the two inhibitors. The enzymatic activities of control vessels which received only equivalent volumes of 1,4-dioxane remained constant at initial activities.
The initial rates of inactivation of the isomerase by (1) and (2) can be analyzed by the method of Kitz and Wilson^8 since very satisfactory pseudo-first-order behavior was observed. It is assumed that [I] (inhibitor) >> [E] (enzyme), that [E.I] (the reversible enzyme-inhibitorcomplex) is at all times in equilibrium with enzyme and inhibitor, and that ^k cat >> ^k inh. The scheme for the formation of EI' (the irreversible enzyme-inhibitor derivative) may then be represented as follows.
If the enzyme-inhibitor solution is diluted extensively prior to assay, the active enzyme (ε) = [E] + [E.I]. Then -d(ε)/dt = k3 [E.I.], and K1 = ([E][I])/[EI]. Thus [formula] where Et = total amount of enzyme in system.
If one defines [formula] Consequently double reciprocal plots of kapp with respect to [I] should be linear, with slopes and intercepts permitting the determination of K1 and k3 where the latter is the overall rate constant for the irreversible inhibition process.
From plots of 1n ε (residual enzymatic activity) vs. time, kapp has been determined at five inhibitor concentrations for both compounds 1 and 2, i.e. estryne and pregnyne. Strict linearity of the semilogarithmic plots has been observed in all cases, over greater than two half-lives. A plot of 1/kapp vs. 1/[I] was linear and gave k3 and K1 (FIG. 1). For compound 1, K1 = 56 μM and k3 = 1.98 × 10^-3 sec^-1, and for compound 2, K1 = 32 μM and k3 = 4.10 × 10^-3 sec^-1.
Studies were performed using crystalline purified bacterial Δ^5 -3-ketosteroid isomerase (from P. testosteroni), under pseudo first order conditions using the kinetic analysis of R. Kitz and I. B. Wilson [J. Biol. Chem., 237, 3245 (1964)].

[2] = target: T2, cytosol androgen receptor (prostate androgen binding protein) (Rattus norvegicus, UniProt P15207); assay: inhibition of nuclear uptake of ^3H-dihydrotestosterone in ventral prostate minces (binding to the prostatic androgen receptor)
T2 construct: freshly minced ventral prostate tissue obtained from rats castrated 24 hours before sacrifice; from tissue; host or cells: ventral prostate minces of castrated rats
T2 sequence (P15207 1-902): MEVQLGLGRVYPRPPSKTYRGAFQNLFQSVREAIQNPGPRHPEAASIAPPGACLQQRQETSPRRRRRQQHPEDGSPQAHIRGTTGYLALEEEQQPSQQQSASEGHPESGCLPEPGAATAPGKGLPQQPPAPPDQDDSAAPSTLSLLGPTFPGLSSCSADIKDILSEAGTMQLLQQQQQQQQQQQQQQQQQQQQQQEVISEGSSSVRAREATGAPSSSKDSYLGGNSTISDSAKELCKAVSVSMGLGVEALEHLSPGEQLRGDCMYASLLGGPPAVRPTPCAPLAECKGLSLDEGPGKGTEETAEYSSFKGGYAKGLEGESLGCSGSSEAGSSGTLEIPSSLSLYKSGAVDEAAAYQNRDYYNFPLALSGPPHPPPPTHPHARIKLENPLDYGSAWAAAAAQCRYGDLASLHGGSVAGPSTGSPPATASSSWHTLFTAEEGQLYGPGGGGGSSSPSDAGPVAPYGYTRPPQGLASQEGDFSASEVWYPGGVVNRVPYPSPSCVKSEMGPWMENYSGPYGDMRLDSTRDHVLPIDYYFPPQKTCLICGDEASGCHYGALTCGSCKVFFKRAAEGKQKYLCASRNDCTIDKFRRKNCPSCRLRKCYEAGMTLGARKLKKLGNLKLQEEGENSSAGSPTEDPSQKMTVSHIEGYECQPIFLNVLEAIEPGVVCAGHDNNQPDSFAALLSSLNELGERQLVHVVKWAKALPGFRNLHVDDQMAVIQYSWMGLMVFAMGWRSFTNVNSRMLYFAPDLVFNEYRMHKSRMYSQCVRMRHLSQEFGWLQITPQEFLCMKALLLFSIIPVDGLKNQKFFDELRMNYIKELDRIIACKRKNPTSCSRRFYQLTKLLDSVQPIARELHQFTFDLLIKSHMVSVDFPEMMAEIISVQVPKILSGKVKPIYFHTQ
Procedure: The binding to the cytosol androgen receptor was determined by the procedure of Fang (5) with modification. […] The amount of radioactivity in the nuclei is expressed as observed counts per minute per 100 μg DNA.

[3] = tested on: endogenous androgen biosynthesis; assay: study in intact male rats: weights of sex accessory tissue and other organs; type: in vivo, male Sprague-Dawley rats; conditions: 7 days; for Adrenal weight (± Sem): control 28 ± 2; for Dorsal Lateral Prostate weight (± Sem): control 252 ± 14; for Seminal Vesicles weight (± Sem): control 470 ± 26; for Ventral Prostate weight (± Sem): control 482 ± 24; for Kidney weight (± Sem): control 1410 ± 38; for Testis weight (± Sem): control 1580 ± 23
Procedure: Studies with intact male Sprague-Dawley rats (300g body weight) are illustrated for compounds (1) and (2).
Similarly, compound (2), […] rats at a dosage of 20mg per kilo for 7 days produced 20% reduction in weight of the ventral prostate and 28% reduction of the dorsal lateral prostate.
The following data illustrates the inhibiting effect of estryne and pregnyne on Δ^5 -3-ketosteroid isomerase (EC 5.3.3.1) as evidenced by a depression of the wet weight of the sex accessory tissue in the mature male rat treated with the estryne and pregnyne.
A. Male rats were used to assess the effect of estryne on endogenous androgen biosynthesis at varying doses (1-20 mg/kg body weight). […] On the eighth day the animals were sacrificed and the ventral prostate, dorsal lateral prostate, seminal vesicles, testes, kidneys, and adrenals were removed and weighed. Samples of each tissue were preserved in 10% buffered formalin for histological examination.
B. Male rats were treated with 19-norpregnyne by a regimen exactly as described for the estryne.

[4] = target: T1, Δ^5 -3-ketosteroid isomerase (EC 5.3.3.1); assay: irreversible inactivation of crystalline purified bacterial Δ^5-3-ketosteroid isomerase by acetylenic steroids (Kitz and Wilson kinetic analysis); type: biochemical, Pseudomonas testosteroni; conditions: 24 hr at 4° vs. 1 mM potassium phosphate buffer, pH 7.0
[5] = 20mg per kilo per day, i.p. in propylene glycol

T1 sequence (P00947 whole entry, stated change not applied): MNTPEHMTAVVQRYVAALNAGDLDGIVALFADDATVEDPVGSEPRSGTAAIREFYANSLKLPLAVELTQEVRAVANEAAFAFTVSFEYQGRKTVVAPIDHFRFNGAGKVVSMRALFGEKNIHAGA

With `CC(=O)[C@H]1CC[C@H]2[C@@H]3CC#CCC(=O)CCC(=O)[C@H]3CC[C@]12C` [Compound 2, 5,10-seco-19-norpregn-5-yne-3,10,20-trione] the “irreversible inhibition / inactivation of the enzyme” value ([1]; in words) was “rapid irreversible inhibition; also recorded: rapid irreversible and complete inactivation of the enzyme; also recorded: Powerful irreversible inhibition”, the “half-life of enzyme inactivation” value ([1]; pH 7.0, 20-200 μM of the two inhibitors, in 1,4-dioxane) was 2.5 to 22 min and the kinact ([1]; pH 7, pseudo first order conditions, five inhibitor concentrations (10-fold range), read-out: k3, overall rate constant for the irreversible inhibition process) was 0.0041 s⁻¹. For the same molecule, the pKi ([1]; pseudo first order conditions, five inhibitor concentrations (10-fold range), read-out: K1 (KI), inhibitor dissociation constant) was 4.49, the remaining activity at 2 µM ([2]; rat, 1 h, pH 7.4, steroid 2 × 10^-6 M with ^3H-DHT 2 × 10^-9 M, read-out: nuclear uptake of ^3H-DHT, % Control) was 137% and the “CPM/100 DNA (nuclear uptake of ^3H-DHT)” value ([2]; steroid 2 × 10^-6 M with ^3H-DHT 2 × 10^-9 M, control 8,471) was 11,636 CPM/100 DNA. The “inhibition of androgen uptake by the nuclei” value ([2]; ventral prostate minces, in words) was “no inhibition of androgen uptake by the nuclei”, the “reduction in weight of the dorsal lateral prostate” value [3, 5] was 28% and the “reduction in weight of the ventral prostate” value [3, 5] was 20%. The “dose dependence of the effect on prostatic weight” value ([3]; 1-20 mg/kg, in words) was “dose dependent”, the “Adrenal weight (± Sem)” value ([3]; pregnyne 1 mg/kg daily i.p.) was 22 ± 2 mg and the “Dorsal Lateral Prostate weight (± Sem)” value ([3]; pregnyne 1 mg/kg daily i.p.) was 205 ± 14 mg. For the same molecule, the “Seminal Vesicles weight (± Sem)” value ([3]; pregnyne 1 mg/kg daily i.p.) was 423 ± 21 mg, the “Ventral Prostate weight (± Sem)” value ([3]; pregnyne 1 mg/kg daily i.p.) was 405 ± 18 mg and the “Kidney weight (± Sem)” value ([3]; pregnyne 1 mg/kg daily i.p.) was 1360 ± 48 mg. The “Testis weight (± Sem)” value ([3]; pregnyne 1 mg/kg daily i.p.) was 1530 ± 68 mg, the “Adrenal weight (± Sem)” value ([3]; pregnyne 5 mg/kg daily i.p.) was 25 ± 2 mg and the “Dorsal Lateral Prostate weight (± Sem)” value ([3]; pregnyne 5 mg/kg daily i.p.) was 208 ± 11 mg. For the same molecule, the “Seminal Vesicles weight (± Sem)” value ([3]; pregnyne 5 mg/kg daily i.p.) was 384 ± 17 mg, the “Ventral Prostate weight (± Sem)” value ([3]; pregnyne 5 mg/kg daily i.p.) was 402 ± 27 mg and the “Kidney weight (± Sem)” value ([3]; pregnyne 5 mg/kg daily i.p.) was 1370 ± 42 mg. For the same molecule, the “Testis weight (± Sem)” value ([3]; pregnyne 5 mg/kg daily i.p.) was 1510 ± 44 mg, the “Adrenal weight (± Sem)” value ([3]; pregnyne 10 mg/kg daily i.p.) was 26 ± 1 mg and the “Dorsal Lateral Prostate weight (± Sem)” value ([3]; pregnyne 10 mg/kg daily i.p.) was 182 ± 19 mg. For the same molecule, the “Seminal Vesicles weight (± Sem)” value ([3]; pregnyne 10 mg/kg daily i.p.) was 390 ± 14 mg, the “Ventral Prostate weight (± Sem)” value ([3]; pregnyne 10 mg/kg daily i.p.) was 386 ± 20 mg and the “Kidney weight (± Sem)” value ([3]; pregnyne 10 mg/kg daily i.p.) was 1310 ± 60 mg. For the same molecule, the “Testis weight (± Sem)” value ([3]; pregnyne 10 mg/kg daily i.p.) was 1530 ± 53 mg, the “Adrenal weight (± Sem)” value ([3]; pregnyne 20 mg/kg daily i.p.) was 31 ± 2 mg and the “Dorsal Lateral Prostate weight (± Sem)” value ([3]; pregnyne 20 mg/kg daily i.p.) was 180 ± 14 mg. The “Seminal Vesicles weight (± Sem)” value ([3]; pregnyne 20 mg/kg daily i.p.) was 380 ± 9 mg, the “Ventral Prostate weight (± Sem)” value ([3]; pregnyne 20 mg/kg daily i.p.) was 360 ± 21 mg and the “Kidney weight (± Sem)” value ([3]; pregnyne 20 mg/kg daily i.p.) was 1360 ± 43 mg. The “Testis weight (± Sem)” value ([3]; pregnyne 20 mg/kg daily i.p.) was 1480 ± 63 mg and the “restoration of enzymatic activity by prolonged dialysis” value [4] was “inability to restore enzymatic activity”.
